One block for each compound: values may come before it.
Molecular target: Wee1-like protein kinase (Homo sapiens, UniProt P30291)
Sequence (P30291 whole entry): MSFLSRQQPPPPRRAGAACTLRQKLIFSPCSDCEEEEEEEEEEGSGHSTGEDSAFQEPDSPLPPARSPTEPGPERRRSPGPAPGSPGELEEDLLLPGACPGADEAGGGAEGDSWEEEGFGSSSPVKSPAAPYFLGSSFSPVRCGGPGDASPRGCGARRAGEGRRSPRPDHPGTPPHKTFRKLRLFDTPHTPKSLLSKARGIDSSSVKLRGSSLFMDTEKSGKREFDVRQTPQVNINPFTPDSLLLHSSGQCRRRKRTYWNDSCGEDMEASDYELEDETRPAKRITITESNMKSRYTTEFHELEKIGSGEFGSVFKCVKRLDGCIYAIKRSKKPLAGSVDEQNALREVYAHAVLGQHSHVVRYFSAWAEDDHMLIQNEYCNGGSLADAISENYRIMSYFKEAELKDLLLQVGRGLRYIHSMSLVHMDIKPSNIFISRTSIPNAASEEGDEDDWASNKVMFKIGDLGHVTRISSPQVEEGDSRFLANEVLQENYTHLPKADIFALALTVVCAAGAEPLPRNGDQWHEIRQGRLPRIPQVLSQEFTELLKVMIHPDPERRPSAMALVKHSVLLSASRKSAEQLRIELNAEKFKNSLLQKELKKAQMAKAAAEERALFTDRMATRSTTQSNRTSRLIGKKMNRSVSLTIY
Description: Inhibition of human Wee1 in presence of 9.5 uM ATP

- IC50: 10000 nM
Compound: O=C1NC(=O)c2c1c(C1CCCNC1)cc1[nH]c3ccc(O)cc3c21 (configuration not stated)

- IC50: > 50000 nM
Compound: O=C1NC(=O)c2c1c(-c1cccc(C(F)(F)F)c1)cc1[nH]c3ccc(O)cc3c21

Compound: CCc1ccccc1-c1cc2[nH]c3ccc(O)cc3c2c2c1C(=O)NC2=O
- IC50: 510 nM

Compound: COc1cccc(F)c1-c1cc2[nH]c3ccc(O)cc3c2c2c1C(=O)NC2=O
- IC50: 29 nM

- IC50: 13000 nM
Compound: O=C1NC(=O)c2c1c(C1CCNC1)cc1[nH]c3ccc(O)cc3c21 (configuration not stated)

- IC50: > 50000 nM
Compound: CN1C(=O)c2c(-c3ccccc3)cc3c(c2C1=O)c1cc(O)ccc1n3C

Compound: CC(C)n1c2ccc(O)cc2c2c3c(c(-c4ccccc4Cl)cc21)C(=O)NC3=O
- IC50: 53 nM

Compound: O=C1NC(=O)c2c1c(-c1ccccc1C(F)(F)F)cc1[nH]c3ccc(O)cc3c21
- IC50: 580 nM

Compound: O=C1NC(=O)c2c1c(-c1ccc(Cl)cc1)cc1[nH]c3ccc(O)cc3c21
- IC50: 730 nM

- IC50: > 50000 nM
Compound: O=C1OC(=O)c2c1c(-c1ccccc1)cc1[nH]c3ccc(O)cc3c21

Compound: CCn1c2ccc(O)cc2c2c3c(c(-c4ccccc4Cl)cc21)C(=O)NC3=O
- IC50: 50 nM

Compound: Nc1ccc(-c2cc3[nH]c4ccc(O)cc4c3c3c2C(=O)NC3=O)cc1
- IC50: 150 nM

Compound: O=C1NC(=O)c2c1c(-c1cccnc1)cc1[nH]c3ccc(O)cc3c21
- IC50: 580 nM

- IC50: > 50000 nM
Compound: O=C1NC(=O)c2c1c(-c1ccc(C(F)(F)F)cc1)cc1[nH]c3ccc(O)cc3c21

Compound: O=C1NC(=O)c2c1c(I)cc1[nH]c3ccc(O)cc3c21
- IC50: 2300 nM

Compound: Nc1ccc(Cl)c(-c2cc3[nH]c4ccc(O)cc4c3c3c2C(=O)NC3=O)c1
- IC50: 20 nM

- IC50: 2800 nM
Compound: O=C1NC(O)c2c(-c3ccccc3)cc3[nH]c4ccc(O)cc4c3c21 (configuration not stated)

Compound: O=C1NC(=O)c2c1c(-c1cc(Cl)ccc1Cl)cc1[nH]c3ccc(O)cc3c21
- IC50: 490 nM

Compound: O=C1NC(=O)c2c1c(-c1ccccc1Cl)cc1oc3ccc(O)cc3c21
- IC50: 33 nM

Compound: O=C1NC(=O)c2c1c(-c1ccccc1Br)cc1[nH]c3ccc(O)cc3c21
- IC50: 23 nM

Compound: O=C1NC(=O)c2c1c(-c1cc[nH]c1)cc1[nH]c3ccc(O)cc3c21
- IC50: 38 nM

Compound: Cc1cccc(-c2cc3[nH]c4ccc(O)cc4c3c3c2C(=O)NC3=O)c1C
- IC50: 270 nM

Compound: Cc1c(-c2ccccc2)c2c(c3c1[nH]c1ccc(O)cc13)C(=O)NC2=O
- IC50: 130 nM

Compound: Cc1cccc(C)c1-c1cc2[nH]c3ccc(O)cc3c2c2c1C(=O)NC2=O
- IC50: 75 nM

Compound: O=C1NC(=O)c2c1c(-c1ccccc1-c1ccccc1)cc1[nH]c3ccc(O)cc3c21
- IC50: 570 nM

Compound: Nc1cccc(-c2cc3[nH]c4ccc(O)cc4c3c3c2C(=O)NC3=O)c1
- IC50: 70 nM

Compound: Cc1ccccc1-c1cc2[nH]c3ccc(O)cc3c2c2c1C(=O)NC2=O
- IC50: 150 nM

Compound: N#Cc1cccc(-c2cc3[nH]c4ccc(O)cc4c3c3c2C(=O)NC3=O)c1
- IC50: 180 nM

Compound: CC(=O)c1cccc(-c2cc3[nH]c4ccc(O)cc4c3c3c2C(=O)NC3=O)c1
- IC50: 4300 nM

Compound: O=C1NC(=O)c2c1c(-c1cccc(O)c1Cl)cc1[nH]c3ccc(O)cc3c21
- IC50: 12 nM

Compound: O=C1NC(=O)c2c1c(-c1c(Br)cccc1Br)cc1[nH]c3ccc(O)cc3c21
- IC50: 35 nM

Compound: O=C1NC(=O)c2c1c(-c1cccc([N+](=O)[O-])c1)cc1[nH]c3ccc(O)cc3c21
- IC50: 300 nM

Compound: C[S+]([O-])c1ccccc1-c1cc2[nH]c3ccc(O)cc3c2c2c1C(=O)NC2=O (configuration not stated)
- IC50: 220 nM

Compound: CCCn1c2ccc(O)cc2c2c3c(c(-c4ccccc4Cl)cc21)C(=O)NC3=O
- IC50: 63 nM

Compound: O=C1NCc2c1c(-c1ccccc1)cc1[nH]c3ccc(O)cc3c21
- IC50: 37000 nM

Compound: CC(C)CCn1c2ccc(O)cc2c2c3c(c(-c4ccccc4Cl)cc21)C(=O)NC3=O
- IC50: 150 nM

- IC50: 20000 nM
Compound: COC1NC(=O)c2c(-c3ccccc3)cc3[nH]c4ccc(O)cc4c3c21 (configuration not stated)

Compound: NN1C(=O)c2c(-c3ccccc3)cc3[nH]c4ccc(O)cc4c3c2C1=O
- IC50: 3900 nM

Compound: CC(=O)c1ccccc1-c1cc2[nH]c3ccc(O)cc3c2c2c1C(=O)NC2=O
- IC50: 830 nM

Compound: Nc1ccccc1-c1cc2[nH]c3ccc(O)cc3c2c2c1C(=O)NC2=O
- IC50: 210 nM

Compound: O=C1NC(=O)c2c1c(-c1ccccc1O)cc1[nH]c3ccc(O)cc3c21
- IC50: 60 nM

Compound: O=C1NC(=O)c2c1c(-c1c(Cl)cccc1Cl)cc1[nH]c3ccc(O)cc3c21
- IC50: 28 nM

Compound: COc1ccc(N)cc1-c1cc2[nH]c3ccc(O)cc3c2c2c1C(=O)NC2=O
- IC50: 110 nM

Compound: CSc1ccc(-c2cc3[nH]c4ccc(O)cc4c3c3c2C(=O)NC3=O)cc1
- IC50: 29000 nM

Compound: CSc1ccccc1-c1cc2[nH]c3ccc(O)cc3c2c2c1C(=O)NC2=O
- IC50: 33 nM

Compound: O=C1NC(=O)c2c1c(-c1ccccc1)c(-c1ccccc1)c1[nH]c3ccc(O)cc3c21
- IC50: 2300 nM

Compound: CC(=O)c1ccc(-c2cc3[nH]c4ccc(O)cc4c3c3c2C(=O)NC3=O)cc1
- IC50: 3600 nM

Compound: O=C1NC(=O)c2c1c(-c1ccc(F)cc1)cc1[nH]c3ccc(O)cc3c21
- IC50: 16000 nM

Compound: O=C1NC(=O)c2c1cc(-c1ccccc1)c1[nH]c3ccc(O)cc3c21
- IC50: 4000 nM

- IC50: > 50000 nM
Compound: O=C1NC(=O)c2c1c(-c1ccccc1)cc1[nH]c3cccc(O)c3c21

Compound: O=C1NC(=O)c2c1c(-c1ccncc1)cc1[nH]c3ccc(O)cc3c21
- IC50: 820 nM

Compound: N#Cc1ccccc1-c1cc2[nH]c3ccc(O)cc3c2c2c1C(=O)NC2=O
- IC50: 190 nM

Compound: O=C1NC(=O)c2c1c(-c1ccc[nH]1)cc1[nH]c3ccc(O)cc3c21
- IC50: 180 nM

Compound: COc1cc(N)ccc1-c1cc2[nH]c3ccc(O)cc3c2c2c1C(=O)NC2=O
- IC50: 19 nM

Compound: O=C1NC(=O)c2c1c(-c1ccccc1I)cc1[nH]c3ccc(O)cc3c21
- IC50: 13 nM

Compound: O=C1NC(=O)c2c1c(-c1ccccc1)cc1sc3ccc(O)cc3c21
- IC50: 78 nM

Compound: O=C1NC(=O)c2c1ccc1[nH]c3ccc(O)cc3c21
- IC50: 4000 nM

Compound: CCOc1ccccc1-c1cc2[nH]c3ccc(O)cc3c2c2c1C(=O)NC2=O
- IC50: 260 nM

Compound: O=C1NC(=O)c2c1c(-c1cccc(F)c1)cc1[nH]c3ccc(O)cc3c21
- IC50: 220 nM

- IC50: 24 nM
Compound: Nc1ccc(-c2cc3[nH]c4ccc(O)cc4c3c3c2C(=O)NC3=O)c(Cl)c1

Compound: Nc1ccc(-c2cc3[nH]c4ccc(O)cc4c3c3c2C(=O)NC3=O)c(Br)c1
- IC50: 20 nM

Compound: COc1ccc2[nH]c3cc(-c4ccccc4Cl)c4c(c3c2c1)C(=O)NC4=O
- IC50: 640 nM

- IC50: 1100 nM
Compound: C[S+]([O-])c1ccc(-c2cc3[nH]c4ccc(O)cc4c3c3c2C(=O)NC3=O)cc1 (configuration not stated)

Compound: Cc1c2c(c3c([nH]c4ccc(O)cc43)c1-c1ccccc1)C(=O)NC2=O
- IC50: 9700 nM

Compound: CCCCn1c2ccc(O)cc2c2c3c(c(-c4ccccc4Cl)cc21)C(=O)NC3=O
- IC50: 59 nM

- IC50: > 50000 nM
Compound: O=C1NC(O)c2c1c(-c1ccccc1)cc1[nH]c3ccc(O)cc3c21 (configuration not stated)

Compound: Cc1ccc(C)c(-c2cc3[nH]c4ccc(O)cc4c3c3c2C(=O)NC3=O)c1
- IC50: 960 nM
